Paper PMC10101059, “Rational Design of Stapled Antimicrobial Peptides to Enhance Stability and In Vivo Potency against Polymicrobial Sepsis” (Microbiology Spectrum, 2023)
Peptide text beside a SMILES is read from it.

Assays:
Assay type in all cases: cell-based
[1] = system: human red blood cells
Protocol: The hemolytic assay was performed after approval from the institutional ethics committee (Academia Sinica Institutional Review Board [IRB]; ID no. AS-IRB02-111075). Blood was collected from healthy humans, and 50 μL of a 2% blood cell suspension in normal saline was treated with an equal volume of peptide at different concentrations. The mixture was then incubated at 37 ± 2°C for 1 h. Next, the cell suspension was centrifuged at 1,000 × g for 10 min. Percent hemolysis was estimated by the absorbance of treated and control supernatant samples at 540 nm ([23], [44]).

[2] = system: human keratinocyte (HaCaT); experiment: alamarBlue cytotoxicity assay; conditions: at 0.78 μM, 24 h
Protocol: (§1) (i) Cell culture. Human skin keratinocytes (HaCaT), human kidney (HK-2), and RAW 264.7 macrophage cells were obtained from the Bioresource Collection and Research Center (BCRC, Hsinchu, Taiwan). HaCaT and […] macrophage cells were cultured in Dulbecco’s modified Eagle’s medium (DMEM, Thermo Fischer, MA, USA.) supplemented with 10% FBS, penicillin (100 U/mL), and streptomycin (100 μg/mL) at 37°C under 5% CO2. HK-2 cells were cultured in glucose-free Keratinocyte serum-free medium (K-SFM) supplemented with 0.05 mg/mL bovine pituitary extract (BPE), 5 ng/mL EGF, 100 U/mL penicillin, and […] streptomycin at 37°C in 5% CO2 ([49]).
(§2) In vitro toxicity assay. The cytotoxicity of TP4-3 was evaluated by an alamarBlue assay. HaCaT, HK-2, and RAW 264.7 macrophage cells were seeded at densities of 1 × 10^4 cells/well in 96-well cell plates and treated with the indicated concentrations of TP4 and TP4-3 for 24 h (0.78 to 100 μM). Cells treated with 0.1% Triton X-100 and culture medium served as negative and positive-control groups, respectively. After incubation, the cells were washed and incubated for 2 h at 37°C with 90 μL Dulbecco’s modified Eagle medium (DMEM) containing 10 μL alamarBlue reagent. Fluorescence was recorded using a Spectra Max i3 Multi-Mode detection platform (Molecular Devices, San Jose, CA) to measure cell viability ([50], [51]).

[3] = system: human kidney cell (HK-2); experiment: alamarBlue cytotoxicity assay; conditions: at 1.56 μM, 24 h
Protocol: as §1, §2

[4] = system: murine macrophage (RAW 264.7); experiment: alamarBlue cytotoxicity assay; conditions: at 1.56 μM, 24 h
Protocol: as §1, §2

SMILES: CC[C@H](C)[C@H](NC(=O)[C@H](C)NC(=O)[C@H](CCCCN)NC(=O)CNC(=O)[C@H](C)NC(=O)[C@H](CO)NC(=O)[C@H](Cc1ccccc1)NC(=O)[C@H](CC(C)C)NC(=O)CNC(=O)CNC(=O)[C@@H](NC(=O)[C@@H](NC(=O)[C@H](Cc1cnc[nH]1)NC(=O)[C@H](Cc1cnc[nH]1)NC(=O)[C@@H](NC(=O)[C@@H](N)Cc1ccccc1)[C@@H](C)CC)[C@@H](C)CC)[C@@H](C)CC)C(=O)N[C@@H](Cc1cnc[nH]1)C(=O)N[C@@H](CCCNC(=N)N)C(=O)N[C@@H](CC(C)C)C(=O)N[C@H](C(=O)N[C@@H](CCCNC(=N)N)C(=O)N[C@@H](CCCNC(=N)N)C(=O)N[C@@H](CCCNC(=N)N)C(=O)N[C@@H](CCCNC(=N)N)C(=O)N[C@@H](CCCNC(=N)N)C(=O)O)[C@@H](C)CC [TP4, tilapia piscidin 4] (H-FIHHIIGGLFSAGKAIHRLIRRRRR-OH)
- 15% hemolysis concn [1]: <3.13 µM
- cell death [2]: substantial cell death
- cell death [3]: substantial cell death
- cell death [4]: substantial cell death
